Measured values reported in patent publication US7732444B2, “2-(amino-substituted)-4-aryl pyrimidines and related compounds useful for treating inflammatory diseases” (Millennium Pharmaceuticals, Inc., priority 2004, dated 2010).

What follows are compounds tested against T1, full length PKC θ (Homo sapiens, UniProt Q04759) (assay: PKC-theta isoform inhibition assay (HTRF, 384 well plate)). Conditions: full length PKC θ at 27 pM, peptide substrate 300 nM + 3 μM ATP, HTRF readout.
T1 construct: 15 μL of full length PKC θ (Panvera Corporation); purchased Panvera Corporation
Format: biochemical
Experimental: An in vitro assay for detecting and measuring inhibition activity against PKC-theta isoform by candidate pharmacological agents is useful for evaluating and selecting a compound that modulates PKC-theta isoform. An IC50 value can be calculated after running the assay. Following is an assay protocol for measuring PKC-theta isoform.
Per well of a 384 well plate, compounds at various concentrations in 5 μL of 20% DMSO were pre-incubated for about 30 minutes at about 25° C. with 15 μL of full length PKC θ (Panvera Corporation) at 27 pM in an assay buffer (25 mM Hepes, pH 7.5, 5 mM DTT, 10 mM MgCl2, 10 mM 2-glycerophosphate, 12.5 μg/mL 1,2-dioleoyl-rac-glycerol, 10 μg/mL L-α-phosphatidyl-L-serine, 0.1% Bovine Serum Albumin). 10 μL of peptide substrate (biotin-(CH2)6— RFARKGSLRQKNV —CONH2) at 300 nM+3 μM ATP were added to each well and incubated for about 1 hour before quenching with 10 μL of 250 mM EDTA. 40 μL of detection buffer (25 mM Hepes, pH 7.5, 100 mM KF, 0.1% Bovine Serum Albumin, 0.01% Tween20) containing 2 nM anti-phospho antibody 2B9 (MBL International) labeled with europium cryptate (Cis-Bio International) and 0.0064 μg/mL streptavidin-allophycocyanin (Prozyme) was added to each well and incubated for two hours. Signal was then read on a Discovery HTRF (Packard).

T1 sequence (Q04759 whole entry, canonical isoform): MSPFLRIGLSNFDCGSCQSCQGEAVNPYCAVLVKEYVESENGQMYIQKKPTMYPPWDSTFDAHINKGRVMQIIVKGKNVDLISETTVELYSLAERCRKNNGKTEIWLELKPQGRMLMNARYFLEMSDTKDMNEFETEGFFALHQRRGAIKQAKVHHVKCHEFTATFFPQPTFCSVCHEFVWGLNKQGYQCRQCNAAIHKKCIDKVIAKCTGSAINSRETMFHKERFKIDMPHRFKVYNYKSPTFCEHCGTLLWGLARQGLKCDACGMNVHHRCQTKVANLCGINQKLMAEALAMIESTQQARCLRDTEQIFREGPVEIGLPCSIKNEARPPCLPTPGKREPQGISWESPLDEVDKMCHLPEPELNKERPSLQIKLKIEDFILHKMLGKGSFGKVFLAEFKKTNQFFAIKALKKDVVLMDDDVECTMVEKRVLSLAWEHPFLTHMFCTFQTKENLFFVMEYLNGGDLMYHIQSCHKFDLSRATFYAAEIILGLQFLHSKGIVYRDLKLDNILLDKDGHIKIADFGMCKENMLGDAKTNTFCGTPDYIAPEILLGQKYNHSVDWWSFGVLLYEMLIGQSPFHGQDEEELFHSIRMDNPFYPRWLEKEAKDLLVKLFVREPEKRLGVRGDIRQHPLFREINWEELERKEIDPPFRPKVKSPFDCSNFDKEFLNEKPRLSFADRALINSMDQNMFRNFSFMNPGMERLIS

IC50, < 100 nM:
C[C@H]1CNCC[C@H]1NCc1cccc(-c2ccnc(NCCc3ccc(O)cc3)n2)c1 [Compound 249, 4-[2-(4-{3-[(3(S)-Methyl-piperidin-4(R)-ylamino)-methyl]-phenyl}-pyrimidin-2-ylamino)-ethyl]-phenol]
CS(=O)(=O)N(CCCN)Cc1cccc(-c2ccnc(NCCc3cccc(O)c3)n2)c1 [Compound 26, N-(3-Amino-propyl)-N-(3-{2-[2-(3-hydroxy-phenyl)-ethylamino]-pyrimidin-4-yl}-benzyl)-methanesulfonamide]
O=C(NCC1CCNC1)c1cccc(-c2ccnc(NCCc3ccc(O)cc3)n2)c1 (centres unmarked) [Compound 67, 3-{2-[2-(4-Hydroxy-phenyl)-ethylamino]-pyrimidin-4-yl}-N-pyrrolidin-3-ylmethyl-benzamide]
C[C@H]1CNCCN1Cc1cc(-c2ccnc(NCCc3ccc(O)cc3)n2)ccc1F [Compound 286, 4-(2-(4-(4-fluoro-3-(((S)-2-methylpiperazin-1-yl)methyl)phenyl)pyrimidin-2-ylamino)ethyl)phenol]
CS(=O)(=O)N(CCCNC(=O)c1ccccn1)Cc1cccc(-c2ccnc(NCCc3ccc(O)cc3)n2)c1 [Compound 60, Pyridine-2-carboxylic acid {3-[(3-{2-[2-(4-hydroxy-phenyl)-ethylamino]-pyrimidin-4-yl}-benzyl)-methanesulfonyl-amino]-propyl}-amide]
CN1CCN(Cc2cccc(-c3ccnc(NCCc4ccc(O)cc4)n3)c2)CC1 [Compound 81, 4-(2-{4-[3-(4-Methyl-piperazin-1-ylmethyl)-phenyl]-pyrimidin-2-ylamino}-ethyl)-phenol]
CC(O)c1cccc(-c2ccnc(NCCc3ccc(O)cc3)n2)c1 (centres unmarked) [Compound 121, 4-(2-{4-[3-(1-Hydroxy-ethyl)-phenyl]-pyrimidin-2-ylamino}-ethyl)-phenol]
CS(=O)(=O)N(CCCN)Cc1cccc(-c2ccnc(NCCc3ccc(O)c(Br)c3)n2)c1 [Compound 36, N-(3-Amino-propyl)-N-(3-{2-[2-(3-bromo-4-hydroxy-phenyl)-ethylamino]-pyrimidin-4-yl}-benzyl)-methanesulfonamide]
NCCCNC(=O)c1cccc(-c2ccnc(NCCc3ccc(O)cc3)n2)c1 [Compound 68, N-(3-Amino-propyl)-3-{2-[2-(4-hydroxy-phenyl)-ethylamino]-pyrimidin-4-yl}-benzamide]
CC(C)(C)NCc1cccc(-c2ccnc(NCCc3ccc(O)c(Cl)c3)n2)c1 [Compound 218, 4-(2-{4-[3-(tert-Butylamino-methyl)-phenyl]-pyrimidin-2ylamino}-ethyl)-2-chloro-phenol]
[2H]C([2H])(CNc1nccc(-c2cccc(CN3CCNC[C@@H]3C)c2)n1)c1cc(F)cc(F)c1 [Compound 200, [2-(3,5-Difluoro-phenyl)-2,2 dideuteroethyl]-{4-[3-(2(S)-methyl-piperazin-1-ylmethyl)-phenyl]-pyrimidin-2-yl}-amine]
CCN(CCC1CCCCN1)Cc1cccc(-c2ccnc(NCCc3ccc(O)c(Cl)c3)n2)c1 (centres unmarked) [Compound 289, 2-chloro-4-(2-(4-(3-((ethyl(2-(piperidin-2-yl)ethyl)amino)methyl)phenyl)pyrimidin-2-ylamino)ethyl)phenol]
CS(=O)(=O)N(CCCN)Cc1cccc(-c2ccnc(NCCc3ccc(O)c([N+](=O)[O-])c3)n2)c1 [Compound 22, N-(3-Amino-propyl)-N-(3-{2-[2-(4-hydroxy-3-nitro-phenyl)-ethylamino]-pyrimidin-4-yl}-benzyl)-methanesulfonamide]
CCN(Cc1cccnc1)c1cccc(-c2ccnc(NCCc3ccc(O)cc3)n2)c1 [Compound 80, 4-(2-{4-[3-(Ethyl-pyridin-3-ylmethyl-amino)-phenyl]-pyrimidin-2-ylamino}-ethyl)-phenol]
